Laboratory results as given in PubChem BioAssay (NCI).
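Each compound was tested at five concentrations against cells in 96-well plates for 48 hours. GI50 marks 50% less growth. TGI marks complete inhibition of growth.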

Legend:
Assay in all cases: inhibition of tumour cell growth, NCI panel, 48 h
NCI-H460 lung = test system: NCI-H460 lung
OVCAR-5 ovarian = test system: OVCAR-5 ovarian
HT29 colon = test system: HT29 colon
HCC-2998 colon = test system: HCC-2998 colon
HCT-15 colon = test system: HCT-15 colon
OVCAR-4 ovarian = test system: OVCAR-4 ovarian
SR leukemia = test system: SR leukemia
PC-3 prostate = test system: PC-3 prostate
OVCAR-8 ovarian = test system: OVCAR-8 ovarian
HS 578T breast = test system: HS 578T breast
SK-MEL-5 melanoma = test system: SK-MEL-5 melanoma
MOLT-4 leukemia = test system: MOLT-4 leukemia
BT-549 breast = test system: BT-549 breast
SNB-75 CNS = test system: SNB-75 CNS
786-0 renal = test system: 786-0 renal
SK-OV-3 ovarian = test system: SK-OV-3 ovarian
M14 melanoma = test system: M14 melanoma
UACC-257 melanoma = test system: UACC-257 melanoma
SW-620 colon = test system: SW-620 colon
RXF 393 renal = test system: RXF 393 renal
RPMI-8226 leukemia = test system: RPMI-8226 leukemia
HCT-116 colon = test system: HCT-116 colon
SN12C renal = test system: SN12C renal
OVCAR-3 ovarian = test system: OVCAR-3 ovarian
SNB-19 CNS = test system: SNB-19 CNS
NCI/ADR-RES ovarian = test system: NCI/ADR-RES ovarian
ACHN renal = test system: ACHN renal
HOP-92 NSCLC = test system: HOP-92 NSCLC
A549 NSCLC = test system: A549 NSCLC
DU-145 prostate = test system: DU-145 prostate
SF-268 CNS = test system: SF-268 CNS
SK-MEL-28 melanoma = test system: SK-MEL-28 melanoma
COLO 205 colon = test system: COLO 205 colon
TK-10 renal = test system: TK-10 renal
UO-31 renal = test system: UO-31 renal
SF-539 CNS = test system: SF-539 CNS
NCI-H226 lung = test system: NCI-H226 lung
MDA-MB-435 = test system: MDA-MB-435
MCF7 breast = test system: MCF7 breast
LOX IMVI melanoma = test system: LOX IMVI melanoma
UACC-62 melanoma = test system: UACC-62 melanoma
HOP-62 NSCLC = test system: HOP-62 NSCLC
A498 renal = test system: A498 renal
MALME-3M melanoma = test system: MALME-3M melanoma
SK-MEL-2 melanoma = test system: SK-MEL-2 melanoma
NCI-H23 lung = test system: NCI-H23 lung
U251 CNS = test system: U251 CNS
T-47D breast = test system: T-47D breast
IGROV1 ovarian = test system: IGROV1 ovarian
K-562 leukemia = test system: K-562 leukemia
MDA-MB-231 breast = test system: MDA-MB-231 breast
HL-60(TB) leukemia = test system: HL-60(TB) leukemia
SF-295 CNS = test system: SF-295 CNS
KM12 colon = test system: KM12 colon
EKVX NSCLC = test system: EKVX NSCLC
CCRF-CEM leukemia = test system: CCRF-CEM leukemia
CAKI-1 renal = test system: CAKI-1 renal
NCI-H522 lung = test system: NCI-H522 lung

## CC(SC(=S)N(C)C)C(=O)Nc1nnc(-c2ccc(Cl)cc2)o1 (stereo not drawn)
NCI-H460 lung
  TGI: > 100 µM
OVCAR-5 ovarian
  TGI: > 100 µM
HT29 colon
  TGI: 51.9 µM
HCC-2998 colon
  TGI: > 100 µM
HCT-15 colon
  TGI: > 100 µM
OVCAR-4 ovarian
  TGI: > 100 µM
SR leukemia
  TGI: 19.9 µM
PC-3 prostate
  TGI: > 100 µM
OVCAR-8 ovarian
  TGI: > 100 µM
HS 578T breast
  TGI: > 100 µM
SK-MEL-5 melanoma
  TGI: > 100 µM
MOLT-4 leukemia
  TGI: 8.28 µM
BT-549 breast
  TGI: > 100 µM
SNB-75 CNS
  TGI: > 100 µM
786-0 renal
  TGI: 69.7 µM
SK-OV-3 ovarian
  TGI: > 100 µM
M14 melanoma
  TGI: > 100 µM
UACC-257 melanoma
  TGI: > 100 µM
SW-620 colon
  TGI: > 100 µM
RXF 393 renal
  TGI: > 100 µM
RPMI-8226 leukemia
  TGI: 66.6 µM
HCT-116 colon
  TGI: > 100 µM
SN12C renal
  TGI: > 100 µM
OVCAR-3 ovarian
  TGI: > 100 µM
SNB-19 CNS
  TGI: > 100 µM
NCI/ADR-RES ovarian
  TGI: > 100 µM
ACHN renal
  TGI: > 100 µM
HOP-92 NSCLC
  TGI: > 100 µM
A549 NSCLC
  TGI: > 100 µM
DU-145 prostate
  TGI: > 100 µM
SF-268 CNS
  TGI: > 100 µM
SK-MEL-28 melanoma
  TGI: > 100 µM
COLO 205 colon
  TGI: > 100 µM
TK-10 renal
  TGI: > 100 µM
UO-31 renal
  TGI: > 100 µM
SF-539 CNS
  TGI: > 100 µM
NCI-H226 lung
  TGI: > 100 µM
MDA-MB-435
  TGI: > 100 µM
MCF7 breast
  TGI: > 100 µM
LOX IMVI melanoma
  TGI: 33.8 µM
UACC-62 melanoma
  TGI: > 100 µM
HOP-62 NSCLC
  TGI: > 100 µM
A498 renal
  TGI: > 100 µM
MALME-3M melanoma
  TGI: > 100 µM
SK-MEL-2 melanoma
  TGI: > 100 µM
NCI-H23 lung
  TGI: > 100 µM
U251 CNS
  TGI: > 100 µM
T-47D breast
  TGI: > 100 µM
IGROV1 ovarian
  TGI: > 100 µM
K-562 leukemia
  TGI: > 100 µM
MDA-MB-231 breast
  TGI: > 100 µM

## C=C(c1ccc(OC)c(/C=C/C(=O)c2cc(OC)c(OC)c(OC)c2)c1)c1cc(OC)c(OC)c(OC)c1
NCI-H460 lung
  GI50: 1.44 µM
  TGI: 3.54 µM
OVCAR-5 ovarian
  GI50: 2.07 µM
  TGI: 6.14 µM
HT29 colon
  GI50: 0.628 µM
  TGI: 3.15 µM
HCC-2998 colon
  GI50: 1.84 µM
  TGI: 3.37 µM
HCT-15 colon
  GI50: 0.552 µM
  TGI: 2.79 µM
OVCAR-4 ovarian
  GI50: 3.7 µM
  TGI: > 100 µM
SR leukemia
  GI50: 0.46 µM
  TGI: 8.79 µM
PC-3 prostate
  GI50: 1.3 µM
  TGI: 5.31 µM
OVCAR-8 ovarian
  GI50: 0.716 µM
  TGI: 11.9 µM
HL-60(TB) leukemia
  GI50: 2.03 µM
  TGI: 13.4 µM
HS 578T breast
  GI50: 1.46 µM
  TGI: 50 µM
SK-MEL-5 melanoma
  GI50: 1.18 µM
  TGI: 2.5 µM
MOLT-4 leukemia
  GI50: 1.61 µM
  TGI: 27 µM
BT-549 breast
  GI50: 0.894 µM
  TGI: 4.22 µM
SF-295 CNS
  GI50: 2.9 µM
  TGI: 14.9 µM
SNB-75 CNS
  GI50: 0.892 µM
  TGI: 7.08 µM
786-0 renal
  GI50: 1.68 µM
  TGI: 3.7 µM
SK-OV-3 ovarian
  GI50: 3.6 µM
  TGI: > 100 µM
M14 melanoma
  GI50: 1.59 µM
  TGI: 4.43 µM
KM12 colon
  GI50: 1.16 µM
  TGI: 2.72 µM
UACC-257 melanoma
  GI50: 1.63 µM
  TGI: 5.11 µM
SW-620 colon
  GI50: 0.6 µM
  TGI: 2.38 µM
RXF 393 renal
  GI50: 1.11 µM
  TGI: 2.62 µM
EKVX NSCLC
  GI50: 2.23 µM
  TGI: 9.74 µM
RPMI-8226 leukemia
  GI50: 0.453 µM
  TGI: 3.06 µM
HCT-116 colon
  GI50: 0.609 µM
  TGI: 1.9 µM
SN12C renal
  GI50: 1.87 µM
  TGI: 9.55 µM
OVCAR-3 ovarian
  GI50: 1.53 µM
  TGI: 3.18 µM
NCI/ADR-RES ovarian
  GI50: 0.936 µM
  TGI: 4.85 µM
ACHN renal
  GI50: 1.26 µM
  TGI: 2.58 µM
CCRF-CEM leukemia
  GI50: 0.359 µM
  TGI: > 100 µM
CAKI-1 renal
  GI50: 1.28 µM
  TGI: 10.5 µM
HOP-92 NSCLC
  GI50: 1.14 µM
  TGI: 6.9 µM
A549 NSCLC
  GI50: 1.81 µM
  TGI: 4.51 µM
DU-145 prostate
  GI50: 1.32 µM
  TGI: 3.11 µM
SF-268 CNS
  GI50: 1.46 µM
  TGI: 3.83 µM
SK-MEL-28 melanoma
  GI50: 1.52 µM
  TGI: 3.45 µM
COLO 205 colon
  GI50: 2.03 µM
  TGI: 4.98 µM
TK-10 renal
  GI50: 2.59 µM
  TGI: 7.9 µM
UO-31 renal
  GI50: 1.07 µM
  TGI: 2.34 µM
SF-539 CNS
  GI50: 1.41 µM
  TGI: 3.05 µM
NCI-H226 lung
  GI50: 1.41 µM
  TGI: 3.29 µM
MCF7 breast
  GI50: 0.44 µM
  TGI: 4.03 µM
LOX IMVI melanoma
  GI50: 0.582 µM
  TGI: 1.95 µM
UACC-62 melanoma
  GI50: 0.498 µM
  TGI: 2.16 µM
NCI-H522 lung
  GI50: 1.1 µM
  TGI: 5.63 µM
HOP-62 NSCLC
  GI50: 2.27 µM
  TGI: 6.68 µM
A498 renal
  GI50: 1.48 µM
  TGI: 3.11 µM
MALME-3M melanoma
  GI50: 1.88 µM
  TGI: 4.45 µM
SK-MEL-2 melanoma
  GI50: 2.58 µM
  TGI: 12.4 µM
NCI-H23 lung
  GI50: 1.95 µM
  TGI: 4.9 µM
U251 CNS
  GI50: 0.773 µM
  TGI: 2.12 µM
T-47D breast
  GI50: 1.38 µM
  TGI: 6.12 µM
IGROV1 ovarian
  GI50: 2.07 µM
  TGI: 5.88 µM
K-562 leukemia
  GI50: 0.922 µM
  TGI: 10.7 µM
MDA-MB-231 breast
  GI50: 0.995 µM
  TGI: > 100 µM
